Reference: patent publication US8097628B2, “Compounds” (Glaxo Group Limited, priority 2008, dated 2012)
Values after ≈ are worked out from the molar mass of the structure shown. Structures can show the parent of a compound that is named as a salt.

These compounds were tested on Mycobacterium tuberculosis H37Rv (assay: Mycobacterium tuberculosis H37Rv Inhibition Assay). Settings: ATCC 25618 / H37Rv, H37Rv strain (ATCC25618), Middlebrook 7H9, resazurin fluorescence, read-out: MtB MIC.
Assay type: cell-based
Cc1cc(CNC2CCN(CC3Cn4c(=O)ccc5ncc(=O)n3c54)CC2)cnc1F (stereo not shown) [Example 33, 2-[(4-{[(6-fluoro-5-methyl-3-pyridinyl)methyl]amino}-1-piperidinyl)methyl]-1,2-dihydro-3H,8H-2a,5,8a-triazaacenaphthylene-3,8-dione] was tested, and the MIC was 0.531 µg/mL (≈ 1.25 µM).
Cl.O=c1ccc2ncc(=O)n3c2n1CC3CN1CCC(NCc2ccc(C(F)(F)F)nc2)CC1 (stereo not shown) [Example 20, 2-{[4-({[6-(trifluoromethyl)-3-pyridinyl]methyl}amino)-1-piperidinyl]methyl}-1,2-dihydro-3H,8H-2a,5,8a-triazaacenaphthylene-3,8-dione hydrochloride] gave an MIC of 0.311 µg/mL.
Work on CCc1ncc(CNC2CCN(C[C@@H]3Cn4c(=O)ccc5ccc(=O)n3c54)CC2)cc1F [Example 54, (1R)-1-[(4-{[(6-ethyl-5-fluoro-3-pyridinyl)methyl]amino}-1-piperidinyl)methyl]-1,2-dihydro-4H,9H-imidazo[1,2,3-ij]-1,8-naphthyridine-4,9-dione] yielded an MIC of 2.19 µg/mL (≈ 5 µM).
With O=c1ccc2ncc(=O)n3c2n1CC3CN1CCC(NCc2ccc(Cl)cc2)CC1 (stereo not shown) [Example 21, 2-[(4-{[(4-chlorophenyl)methyl]amino}-1-piperidinyl)methyl]-1,2-dihydro-3H,8H-2a,5,8a-triazaacenaphthylene-3,8-dione] the MIC was 0.266 µg/mL (≈ 0.625 µM).
In the case of O=c1cnc2ccc(=O)n3c2n1C[C@H]3CN1CCC(NCc2ccc(C(F)(F)F)nc2)CC1 [Example 11, (1R)-1-{[4-({[6-(trifluoromethyl)-3-pyridinyl]methyl}amino)-1-piperidinyl]methyl}-1,2-dihydro-3H,8H-2a,5,8a-triazaacenaphthylene-3,8-dione], the MIC is reported as 0.14 µg/mL (≈ 0.304 µM).
Cc1ncc(CNC2CCN(C[C@H]3Cn4c(=O)ccc5ncc(=O)n3c54)CC2)cc1Cl [Example 53, (2S)-2-[(4-{[(5-chloro-6-methyl-3-pyridinyl)methyl]amino}-1-piperidinyl)methyl]-1,2-dihydro-3H,8H-2a,5,8a-triazaacenaphthylene-3,8-dione] showed an MIC of 0.83 µg/mL (≈ 1.88 µM).
In the case of Cl.O=c1ccc2ncc(=O)n3c2n1C[C@H]3CN1CCC(NCc2ccc(F)c(C(F)(F)F)c2)CC1 [Example 4, (2R)-2-{[4-({[4-fluoro-3-(trifluoromethyl)phenyl]methyl}amino)-1-piperidinyl]methyl}-1,2-dihydro-3H,8H-2a,5,8a-triazaacenaphthylene-3,8-dione hydrochloride], the MIC is reported as 0.04 µg/mL.
Compound Cc1ccc(CNC2CCN(CC3Cn4c(=O)ccc5ncc(=O)n3c54)CC2)cc1C (stereo not shown) [Example 25, 2-[(4-{[(3,4-dimethylphenyl)methyl]amino}-1-piperidinyl)methyl]-1,2-dihydro-3H,8H-2a,5,8a-triazaacenaphthylene-3,8-dione] has an MIC of 0.262 µg/mL (≈ 0.625 µM).
O=c1ccc2ncc(=O)n3c2n1CC3CN1CCC(NCc2cc(Br)cs2)CC1 (stereo not shown) [Example 35, 2-[(4-{[(4-bromo-2-thienyl)methyl]amino}-1-piperidinyl)methyl]-1,2-dihydro-3H,8H-2a,5,8a-triazaacenaphthylene-3,8-dione] gave an MIC of 1.19 µg/mL (≈ 2.5 µM).

Same assay, conditions: ATCC 25618 / H37Rv, read-out: MtB MIC
With Cc1ncc(CNC2CCN(C[C@@H]3Cn4c(=O)ccc5ncc(=O)n3c54)CC2)cc1Br [Example 51, (2R)-2-[(4-{[(5-bromo-6-methyl-3-pyridinyl)methyl]amino}-1-piperidinyl)methyl]-1,2-dihydro-3H,8H-2a,5,8a-triazaacenaphthylene-3,8-dione hydrochloride] the MIC was 0.015 µg/mL.

Same assay, conditions: H37Rv inhibition assay, read-out: MIC value
Cc1ncc(CNC2CCN(C[C@@H]3Cn4c(=O)ccc5ccc(=O)n3c54)CC2)cc1F [Example 63, (1R)-1-[(4-{[(5-fluoro-6-methyl-3-pyridinyl)methyl]amino}-1-piperidinyl)methyl]-1,2-dihydro-4H,9H-imidazo[1,2,3-ij]-1,8-naphthyridine-4,9-dione] was tested, and the MIC was > 1 µg/mL.
With COCCc1ncc(CNC2CCN(C[C@@H]3Cn4c(=O)ccc5ncc(=O)n3c54)CC2)cc1Cl [Example 65, (2R)-2-({4-[({5-chloro-6-[2-(methyloxy)ethyl]-3-pyridinyl}methyl)amino]-1-piperidinyl}methyl)-1,2-dihydro-3H,8H-2a,5,8a-triazaacenaphthylene-3,8-dione] the MIC was > 1 µg/mL.
In the case of O=c1ccc2ncc(=O)n3c2n1CC3CN1CCC(NCc2cc(Br)cs2)CC1 (stereo not shown) [Example 35, 2-[(4-{[(4-bromo-2-thienyl)methyl]amino}-1-piperidinyl)methyl]-1,2-dihydro-3H,8H-2a,5,8a-triazaacenaphthylene-3,8-dione], the MIC is reported as > 1 µg/mL.
